Holding throughout (experiment): greenhouse test, pre-emergence treatment
In one experiment the test system is PHACA. The class given is in vivo, Phalaris canariensis. An excerpt:
(§1) The culture containers used were plastic pots containing loamy sand with approximately 3.0% of humus as substrate. The seeds of the test plants were sown separately for each species.
(§2) For the pre-emergence treatment, the active compounds, suspended or emulsified in water, were applied directly after sowing by means of finely distributing nozzles. The containers were irrigated gently to promote germination and growth and subsequently covered with transparent plastic hoods until the plants had rooted. This cover caused uniform germination of the test plants unless this was adversely affected by the active compounds.
(§3) Depending on the species, the plants were kept at 10-25° C. and 20-35° C., respectively. The test period extended over 2 to 4 weeks. During this time, the plants were tended and their response to the individual treatments was evaluated.
(§4) Evaluation was carried out using a scale from 0 to 100. 100 means no emergence of the plants, or complete destruction of at least the above-ground parts, and 0 means no damage or normal course of growth. Good herbicidal activity is given at values of at least 70, and very good herbicidal activity is given at values of at least 85.
(§5) The respective stated components A and B, and if appropriate, C were formulated as a 5% by weight or 10% by weight strength emulsion concentrate or a commercially available formulation of component B was used and, with addition of the amount of solvent system, introduced into the spray liquor used for applying the active compound. In the examples, the solvent used was water.
(§6) The test period extended over 20 or 21 days. During this time, the plants were tended, and their reactions to the treatment with active compound was monitored.
(§7) What was evaluated was the damage by the chemical compositions using a scale of from 0 to 100%, in comparison to the untreated control plants. 0 means no damage, and 100 means complete destruction of the plants.
(§8) In the examples below, using the method of S. R. Colby (1967) “Calculating synergistic and antagonistic responses of herbicide combinations”, Weeds 15, p. 22 ff., the value E, which is expected if the activity of the individual active compounds is only additive, was calculated.
(§9) where X=percent activity using active compound A at an application rate a; Y=percent activity using active compound B at an application rate b; E=expected activity (in %) by A+B at application rates a+b.
(§10) If the value found in experiments is higher than the value E calculated according to Colby, a synergistic effect is present.

The next experiment has as its system ECHCG. It is filed as in vivo, Echinochloa crus-galli.
Text: as §1, §2, §3, §4, §5, §6, §7, §8, §9, §10

The next experiment has as its system SETFA. It is filed as in vivo, Setaria faberi.
Text: as §1, §2, §3, §4, §5, §6, §7, §8, §9, §10

In the next experiment the test system is LAMPU. The class given is in vivo, Lamium purpureum.
Text: as §1, §2, §3, §4, §5, §6, §7, §8, §9, §10

A further experiment concerns APESV. The class given is in vivo, Apera spica-venti.
Text: as §1, §2, §3, §4, §5, §6, §7, §8, §9, §10

The subject of the next experiment is DIGSA. It is filed as in vivo, Digitaria sanguinalis.
Text: as §1, §2, §3, §4, §5, §6, §7, §8, §9, §10

In another experiment the test system is BRAPL. It is filed as in vivo, Brachiaria plantaginea. The following applies: for Herbicidal action in % after 21 days against BRAPL: Use Example 8.
Text: as §1, §2, §3, §4, §5, §6, §7, §8, §9, §10

In another experiment the test system is SOLNI. It is filed as in vivo, Solanum nigrum L.
Text: as §1, §2, §3, §4, §5, §6, §7, §8, §9, §10

The test system of a further experiment is LOLMU. It is filed as in vivo, Lolium multiflorum. Conditions: Use Example 21.
Text: as §1, §2, §3, §4, §5, §6, §7, §8, §9, §10

In a further experiment the test system is ALOMY. The class given is in vivo, Alopecurus myosuroides.
Text: as §1, §2, §3, §4, §5, §6, §7, §8, §9, §10

The next experiment has as its system SETLU. It is filed as in vivo, Setaria glauca. The following applies: 31.25 g/ha a.s., Use Example 14.
Text: as §1, §2, §3, §4, §5, §6, §7, §8, §9, §10

Another experiment deals with POAAN. The class given is in vivo, Poa annua. Conditions: Use Example 15.
Text: as §1, §2, §3, §4, §5, §6, §7, §8, §9, §10

[1] abbreviates: 31.25 g/ha a.s., Use Example 23.
Where [2] appears, read: 31.25 g/ha a.s., Use Example 14.

This is an account of results in patent US20100190794A1, “Herbicidally Active Composition” (BASF SE, priority 2007, published 2010).

In the case of `CN1C(=O)C(Cc2ccccc2)N(C)C(=O)C1=Cc1ccccc1C#N` (racemic) [Compound I-1 (Z) (Racemate), 2-[5-benzyl-1,4-dimethyl-3,6-dioxopiperazin-2-ylidenemethyl]benzonitrile], the “Herbicidal action in % after 20 days against PHACA” value with PHACA (125 g/ha a.s., Use Example 20) is on record as 65%; in the experiment with PHACA (250 g/ha a.s., Use Example 20) it was 90%. The “Herbicidal action in % after 20 days against ECHCG” value with ECHCG (125 g/ha a.s., Use Example 22) is given as 20%; in the experiment on ECHCG (125 g/ha a.s., Use Example 23), 20%; in the experiment on ECHCG (250 g/ha a.s., Use Example 22), 70%; in the experiment on ECHCG (250 g/ha a.s., Use Example 23), 70%. The “Herbicidal action in % after 20 days against SETFA” value is recorded as 75% with SETFA (125 g/ha a.s., Use Example 22); 85% with SETFA (250 g/ha a.s., Use Example 19); 85% with SETFA (250 g/ha a.s., Use Example 22). For the same compound, the “Herbicidal action in % after 20 days against LAMPU” value in the experiment with LAMPU (63 g/ha a.s., Use Example 21) came to 0%; with LAMPU (125 g/ha a.s., Use Example 20) it was 30%; in the experiment with LAMPU (125 g/ha a.s., Use Example 21) it was 30%; in the experiment with LAMPU (250 g/ha a.s., Use Example 20), 80%. Besides, the “Herbicidal action in % after 20 days against APESV” value is listed as 80% with APESV (63 g/ha a.s., Use Example 21); 90% in the experiment with APESV (125 g/ha a.s., Use Example 20); 90% in the experiment with APESV (125 g/ha a.s., Use Example 21); 95% with APESV (250 g/ha a.s., Use Example 20). For the same compound, the “Herbicidal action in % after 20 days against DIGSA” value in the experiment on DIGSA (125 g/ha a.s., Use Example 22) worked out at 40%; with DIGSA (125 g/ha a.s., Use Example 23), 40%; in the experiment with DIGSA (250 g/ha a.s., Use Example 19), 65%; in the experiment on DIGSA (250 g/ha a.s., Use Example 22) it was 65%; with DIGSA (250 g/ha a.s., Use Example 23) it was 65%. Besides, the “Herbicidal action in % after 20 days against BRAPL” value in the experiment on BRAPL (125 g/ha a.s., Use Example 23) amounted to 40%; with BRAPL (250 g/ha a.s., Use Example 19), 75%; in the experiment with BRAPL (250 g/ha a.s., Use Example 23), 75%. Moreover, the “Herbicidal action in % after 20 days against SOLNI” value in the experiment with SOLNI (125 g/ha a.s., Use Example 22) is 40%; in the experiment on SOLNI (125 g/ha a.s., Use Example 23), 40%; with SOLNI (250 g/ha a.s., Use Example 19), 65%; in the experiment with SOLNI (250 g/ha a.s., Use Example 22), 65%; with SOLNI (250 g/ha a.s., Use Example 23), 65%. In addition, the “Herbicidal action in % after 20 days against LOLMU” value came out at 30% with LOLMU (63 g/ha a.s.) and 50% in the experiment with LOLMU (125 g/ha a.s.). Moreover, the “Herbicidal action in % after 20 days against ALOMY” value in the experiment on ALOMY (63 g/ha a.s., Use Example 21) came to 30%; in the experiment on ALOMY (125 g/ha a.s., Use Example 21), 75%.

On to `CC1(C)CON(Cc2ccccc2Cl)C1=O` [Clomazon, Clomazone], for which the “Herbicidal action in % after 21 days against BRAPL” value stood at 65% with BRAPL (50 g/ha a.s.) and 85% in the experiment with BRAPL (100 g/ha a.s.).

On to `COC[C@H](C)N(C(=O)CCl)c1c(C)csc1C` [Dimethenamide-P, reference compound], for which the “Herbicidal action in % after 20 days against SETLU” value with SETLU is on record as 65%. For the same compound, the “Herbicidal action in % after 20 days against ECHCG” value in the experiment on ECHCG (16 g/ha a.s., Use Example 23) is 50%; in the experiment with ECHCG (setting [1]), 85%. In the experiment with SETFA (setting [2]), the “Herbicidal action in % after 20 days against SETFA” value is 95%. The “Herbicidal action in % after 20 days against DIGSA” value in the experiment with DIGSA (16 g/ha a.s., Use Example 23) amounted to 70%; in the experiment on DIGSA (setting [2]), 90%; in the experiment on DIGSA (setting [1]), 85%. Besides, the “Herbicidal action in % after 20 days against BRAPL” value in the experiment with BRAPL (16 g/ha a.s., Use Example 23) is reported as 40%; with BRAPL (setting [1]), 50%. Further, the “Herbicidal action in % after 20 days against SOLNI” value with SOLNI (16 g/ha a.s., Use Example 23) was determined as 60%; with SOLNI (setting [1]) it was 80%.

For `CC(C)c1ccc(NC(=O)N(C)C)cc1` [Isoproturon, reference compound], the “Herbicidal action in % after 20 days against PHACA” value in the experiment with PHACA (375 g/ha a.s., Use Example 4) worked out at 55%; in the experiment with PHACA (750 g/ha a.s., Use Example 4), 75%. The “Herbicidal action in % after 20 days against ALOMY” value in the experiment on ALOMY (375 g/ha a.s., Use Example 4) came out at 90%; in the experiment with ALOMY (750 g/ha a.s., Use Example 4) it was 98%.

Consider `CCC(C)(CC)c1cc(NC(=O)c2c(OC)cccc2OC)on1` [Isoxaben, reference compound], for which the “Herbicidal action in % after 20 days against POAAN” value in the experiment with POAAN (25 g/ha a.s.) and in the experiment on POAAN (50 g/ha a.s.) was 0% each time. Also, the “Herbicidal action in % after 20 days against ALOMY” value in the experiment with ALOMY (25 g/ha a.s., Use Example 15) amounted to 0%; in the experiment with ALOMY (50 g/ha a.s., Use Example 15) it was 0%.
